Entries after “also recorded” stand apart in the source; their conditions may differ. Like-named read-outs stand apart in the source and are kept apart here.
Assays:
[1] = molecular target: ΔF508 CFTR (Homo sapiens, UniProt P13569, DEL508-508); test: Ussing chamber short circuit current in Fisher Rat Thyroid epithelial cells overexpressing ΔF508-CFTR; type: cell-based; set-up: expressed in transfected cells; host or cells: Fisher Rat Thyroid (FRT) epithelial cells, stably transfected; conditions: FRT cells, 10 μM, 4 hours
Method: The most prevalent disease causing mutation of the CF transmembrane conductance regulator (CFTR) chloride channel is the deletion of phenylalanine at position 508 in the primary sequence of CFTR (ΔF508-CFTR). This mutation causes a trafficking defect resulting in a severe reduction of ΔF508-CFTR protein at the cell surface. The trafficking defect can be corrected by incubation at low temperature (27° C. overnight) or pharmacologically by small molecules and CFTR correctors. Chloride transport function of Fisher Rat Thyroid (FRT) epithelial cells overexpressing ΔF508-CFTR in monolayers grown on Snapwell™ filter inserts will be monitored as the CFTR agonist evoked short circuit (ISC) current output of an Ussing epithelial voltage clamp apparatus. An objective of this study is to measure the ability of test compounds to restore function to defective ΔF508-CFTR in FRT epithelial cell monolayers.
Measurement of corrector efficacy is divided into two phases. The initial phase is incubation of epithelia with the test compounds for a period of time (that can range from 2 hours to one or two days) in a 37° C. incubator and the second phase is measurement of epithelial ΔF508-CFTR chloride channel current with an epithelial voltage clamp (Ussing assay). The short circuit current (ISC) is measured under short circuit conditions (0 mV transepithelial potential). The ISC magnitude is an index of corrector efficacy and is compared to vehicle and positive control.
Cryopreserved FRT cells stably transfected with ΔF508-CFTR cDNA (Pedemonte et al. (2005) J. CLIN. INVEST., 115, p. 2564-2571) were expanded and plated on Snapwell™ filters for measurement of short circuit current in an Ussing apparatus (Physiologic Instruments, Inc., Sand Diego, Calif.). Cells were grown in Coon's modification of Ham's F-12 media supplemented with zeocin and G-418.
To conduct the assay, a compound of the invention was solubilized as follows: • 1) Prepare 25 mM stock solution in 100% DMSO. • 2) Dilute 12 μL of 25 mM stock solution in 1.20 mL of FBS to make 250 μM intermediate dilution 10× stock (1% DMSO, 99% FBS). Gently vortex all solutions until the solution becomes clear. • 3) Prepare final dilution of 10 μM in 10 mL of Coon's media per well (4 wells×2 mL per well bottom+0.2 mL per insert top=8.8 mL and 1.2 mL reserve for handling losses) by addition of 400 μL of 10× stock and 600 μL of 10× carrier (1% DMSO, 99% FBS) to 9000 μL of Coon's media.
For this example, the test compound was solubilized and added to the appropriate inserts of Ussing chambers (n=4 for each test compound, final test concentration of 10 μM). A DMSO vehicle control and a positive control (VX-809 at 3 μM) were also used. For this particular example, all the test articles, including the positive control, were incubated with the cells for a period of 4 hours. The FRT cell monolayers grown on Snapwell™ filter inserts were transferred to Physiologic Instruments Ussing recording chambers (Physiologic Instruments, Inc., San Diego, Calif.) and superfused with HB-PS on the basolateral side and 78CF-PS on the apical side. One or more 6-channel or 8-channel Physiologic Instruments VCC MC6 or VCC MC8 epithelial voltage clamps were then used in combination to record the short circuit current (ISC) during the entire run. To initiate the ISC measurement, amphotericin (100 μM) was added to the basolateral side of the Snapwell™ filter insert to permeabilize the epithelial cells for 15 min. Forskolin (10 μM), IBMX (100 μM), Genistein (20 μM) and the CFTRinh-172 (20 μM) were added sequentially after the following incubation periods (15 min, 20 min, 10 min, 15 min and 15 min respectively). Data acquisition and analyses were performed using iWorx data acquisition hardware and Labscribe 2 software (iWorx, Dover, N.H.). […]

[2] = Plasma stability, rat plasma; type: in vitro ADME; conditions: rat plasma, 5 μM, 0.5, 1 and 2 hour time points
Method: (§1) The in vitro stability of the test compounds was studied in human, mouse, beagle and rat plasma (plasma was purchased from Bioreclamation). Plasma was diluted to 50% with PBS (pH 7.4). Test compounds were dissolved in DMSO to a final concentration of 10 mM and then diluted to 1 mM in MeOH. Incubations were carried at a test compound concentration of 5 μM with a final DMSO concentration of 2.5%. Plasma (198 μL) was added to 96-well plate and incubated at 37° C. for 30 minutes before the addition of […] of the test compound. The resulting mixture was then incubated at 37° C. for 2 hours. At appropriate time intervals (0, 30, 60 and 120 minutes), aliquots (50 μL) were removed and reactions were terminated by adding 200 μL of acetonitrile with an internal standard. Simultaneously, plasma samples containing Benflourex or Procaine (control compound) were terminated by adding 200 μL of acetonitrile internal standard. The sample plate was centrifuged at 3500 rpm for 45 minutes at 4° C. and the supernatant was transferred to a new plate for analysis by LC/MS-MS (Agilent Model No: HPLC: 1200, MS: 6410). […] A binary gradient consisting of 0.1% formic acid in water and 0.1% formic acid in methanol was used for analyte elution.

[3] = tested on: LC3-II/LC3-I; test: LC3 immunoblotting in Huh-7 cells (autophagy); type: cell-based
Method: The test compound was first solubilized in 100% DMSO as a 50 mM solution, and then diluted 1 to 100 in FBS as a 10× stock solution of 500 μM.
Huh-7 cells were seeded in 10% FBS DMEM overnight. The cells media were replaced with drug diluted 1 to 10 in DMEM (final concentration 50 μm in 10% FBS DMEM). Four hours after the drug addition, cells were lysed in RIPA buffer. Cell lysates were analyzed by immunoblotting with anti-LC3A/B antibodies (Cell signaling 12741). Data were presented as LC3-II/LC3-I ratio compared to vehicle treated samples.
The same experimental procedure detailed in Example 11 was used, except that 2 hours after the drug addition, cells were lysed in RIPA buffer, instead of the previously described 4 hours. Cell lysates were again analyzed by immunoblotting with anti-LC3A/B antibodies (Cell Signaling Technology 12741). Data were presented as LC3-II/LC3-I ratio compared to vehicle treated samples.
This same synergy experiment was repeated in Huh-7 cells after a 4 hour treatment with compound II-2 along with a higher concentration of the individual components (250 μM each of cystamine, EPA or a combination of cystamine and EPA).

[4] = Plasma stability, mouse plasma; type: in vitro ADME; conditions: 5 μM, 0.5, 1 and 2 hour time points
Method: as §1

[5] = Oral cannulated rat PK study (portal and jugular vein); type: in vivo, Sprague Dawley rats; conditions: rat, oral; for AUC(0-t) / Cmax: Sprague Dawley
Source text: The compounds of the invention were solubilized in a mixture of excipients consisting 40% Tween, 50% Peceol, 10% PEG400 and diluted with water to form a self-emulsifying aqueous mixture for oral administration to animals. For this study, Sprague Dawley rats that have been surgically implanted with indwelling jugular vein cannula (JVC) and portal vein cannula (PVC) were used (Agilux, Worcester, Mass.). This approach using double-cannulated rats allowed the measurement of the drug concentration that was delivered in the portal vein as well as the drug concentration that was present in the peripheral. For the PK study, serial blood collection was carried out at both the portal and jugular vein at the following time points: 10, 20, 40 min and 1, 2, 4 and 6 hours post dose. The bioanalytical portion of the PK study was carried out using an LC/MS/MS system (Agilent Model No: HPLC: 1200, MS: 6410) and analyzed with the appropriate software (WinNonlin Phoenix 64 6.3.0 395).

Sequence of ΔF508 CFTR (P13569 with tags, fused parts or gaps DEL508-508): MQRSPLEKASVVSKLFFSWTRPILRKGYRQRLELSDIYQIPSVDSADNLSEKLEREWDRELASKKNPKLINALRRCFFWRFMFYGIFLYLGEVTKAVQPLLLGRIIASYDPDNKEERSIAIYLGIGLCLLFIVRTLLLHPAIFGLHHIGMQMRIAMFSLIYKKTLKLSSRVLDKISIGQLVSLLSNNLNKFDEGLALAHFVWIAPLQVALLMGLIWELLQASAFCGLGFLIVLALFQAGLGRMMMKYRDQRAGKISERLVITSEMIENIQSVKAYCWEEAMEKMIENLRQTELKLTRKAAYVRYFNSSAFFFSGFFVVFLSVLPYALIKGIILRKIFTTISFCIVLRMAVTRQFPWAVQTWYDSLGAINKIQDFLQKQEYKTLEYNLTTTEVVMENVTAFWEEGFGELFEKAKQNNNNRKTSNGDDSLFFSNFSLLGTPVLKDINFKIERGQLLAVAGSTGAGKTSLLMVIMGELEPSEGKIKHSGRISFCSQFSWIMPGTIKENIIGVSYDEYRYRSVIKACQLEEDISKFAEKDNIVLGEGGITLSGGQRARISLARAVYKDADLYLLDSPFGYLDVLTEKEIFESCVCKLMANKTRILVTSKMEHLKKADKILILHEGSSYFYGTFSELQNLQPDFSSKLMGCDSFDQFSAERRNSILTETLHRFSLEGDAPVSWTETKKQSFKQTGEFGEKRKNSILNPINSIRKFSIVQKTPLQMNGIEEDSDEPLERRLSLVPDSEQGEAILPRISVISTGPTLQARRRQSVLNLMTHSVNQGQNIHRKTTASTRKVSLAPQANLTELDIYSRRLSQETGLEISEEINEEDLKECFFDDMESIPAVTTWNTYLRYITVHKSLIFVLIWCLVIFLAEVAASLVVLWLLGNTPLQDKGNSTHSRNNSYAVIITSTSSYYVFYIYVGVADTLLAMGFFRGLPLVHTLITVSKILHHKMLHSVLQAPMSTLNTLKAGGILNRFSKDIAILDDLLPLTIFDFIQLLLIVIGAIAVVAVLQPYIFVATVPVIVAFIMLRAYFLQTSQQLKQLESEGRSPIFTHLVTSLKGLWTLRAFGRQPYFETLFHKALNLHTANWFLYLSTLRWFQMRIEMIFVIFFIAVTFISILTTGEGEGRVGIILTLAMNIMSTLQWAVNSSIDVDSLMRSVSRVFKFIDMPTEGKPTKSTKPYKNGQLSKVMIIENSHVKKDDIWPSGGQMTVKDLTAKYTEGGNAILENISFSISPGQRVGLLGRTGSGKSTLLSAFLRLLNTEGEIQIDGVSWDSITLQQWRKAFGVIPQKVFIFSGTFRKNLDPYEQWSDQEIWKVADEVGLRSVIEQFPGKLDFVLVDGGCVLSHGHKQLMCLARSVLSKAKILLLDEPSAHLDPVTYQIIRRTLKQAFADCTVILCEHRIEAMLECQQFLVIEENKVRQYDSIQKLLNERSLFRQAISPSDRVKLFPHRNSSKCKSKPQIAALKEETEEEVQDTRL

plasma stability (parent compound remaining) [2]: unstable; also recorded: not stable | plasma stability (parent compound remaining) [4]: unstable | AUC(0-t) ([5]; jugular vein blood (peripheral), systemic circulation (jugular vein), read-out: peripheral AUClast): 0.443 ± 0.221 ng·h/mL | Cmax ([5]; jugular vein blood (peripheral), systemic circulation (jugular vein), read-out: peripheral Cmax): 0.889 ± 0.33 ng/mL | AUC(0-t) ([5]; portal vein blood, portal vein, read-out: portal AUClast): 12.5 ± 6.5 ng·h/mL | Cmax ([5]; portal vein blood, portal vein, read-out: portal Cmax): 20.8 ± 9.45 ng/mL | peripheral AUClast ([5]; as restated in Example 23): 0.889 ng·h/mL
SMILES: CC/C=C\C/C=C\C/C=C\C/C=C\C/C=C\CCCC(=O)NCCSSCCNC(=O)c1cccnc1 [II-2, N-(2-((2-((5Z,8Z,11Z,14Z,17Z)-icosa-5,8,11,14,17-pentaenamido)ethyl)disulfanyl)ethyl)nicotinamide]
functional rescue of CFTR (short circuit current vs vehicle) [1]: able to functionally rescue CFTR function | autophagy marker LC3-II (lower band) levels ([3]; Huh cells, 25 and 50 μM, 4 hours): increase | ratio of LC3-II to LC3-I compared to vehicle control ([3]; Huh-7, 50 μM, 2 hours): two-fold increase | autophagy marker LC3-II (lower band) ([3]; Huh-7, 50 μM, 2 hours, compared with cystamine, EPA or their combination (50 μM each)): synergistic increase | activation of autophagy (ratio of LC3-II to LC3-I) ([3]; Huh-7, 50 μM, 4 hour treatment): synergistic and higher degree of activation of autophagy | ratio of LC3-II to LC3-I ([3]; Huh-7 cells, 25 μM, 4 hours): increased | degradation of the parent compound upon oral dosing [5]: significant amount of the parent compound was degraded
